# Results published in patent EP0745599A2, “1-(3-Heterocyclylphenyl)-s-triazine-2,4,6-oxo or thiotrione herbicidal agents” (American Cyanamid Company, priority 1995, dated 1996).
# Key:
# Assay type in all cases: in vivo
# Settings in all cases: rated four to five weeks after treatment
# [1] = test system: ECHINOCHLOA CRUS-GALLI, (L) BEAU; experiment: Postemergence herbicidal evaluation, ECHCG (Barnyardgrass)
# Procedure, shortened: (§1)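 Greenhouse postemergence test: two-week seedlings, 40 psi spray of 0.125–0.500 kg/ha active in acetone/water with surfactant. Scored visually 0–9 at 4–5 weeks.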
# [2] = test system: SETARIA VIRIDIS, (L) BEAU; experiment: Postemergence herbicidal evaluation, SETVI (Foxtail, Green)
# Procedure, shortened: as §1
# [3] = test system: GLYCINE MAX(L)MERR. CV. WILLIAMS; experiment: Postemergence herbicidal evaluation, GLXMAW (Soybean, Williams)
# Description: (§2) In the tests, seedling plants are grown in jiffy flats for about two weeks. The test compounds are dispersed in 50/50 acetone/water mixtures containing 0.5% TWEEN®20, a polyoxyethylene sorbitan monolaurate surfactant of Atlas Chemical Industries, in sufficient quantities to provide the equivalent of about 0.125 kg to 0.500 kg per hectare of active compound when applied to the plants through a spray nozzle operating at 40 psi for a predetermined time. After spraying, the plants are placed on greenhouse benches and are cared for in the usual manner, commensurate with conventional greenhouse practices. From four to five weeks after treatment, the seedling plants are examined and rated according to the rating system set forth below. Where more than one test is involved for a given compound, the data are averaged.
# (§3) Results of herbicide evaluation are expressed on a rating scale (0-9). The scale is based upon a visual observation of plant stand, vigor, malformation, size, chlorosis and overall plant appearance as compared with a control.
# [4] = test system: ORYZA SATIVA, L. TEBONNET; experiment: Postemergence herbicidal evaluation, ORYSAT (Rice, Tebonnet)
# Description: as §2, §3
# [5] = test system: TRITICUM AESTIVUM, CV. APOLLO; experiment: Postemergence herbicidal evaluation, TRZAWO (Wheat, Winter, CV. APOLLO)
# Procedure, shortened: as §1
smiles,measurement,setting,value
"C=CCn1c(=O)n(CC=C)c(=O)n(-c2cc(N3C(=O)C4=C(CCCC4)C3=O)c(F)cc2Cl)c1=O [Compound 19, N-[4-Chloro-5-(3,5-diallylhexahydro-2,4,6-trioxo-s-triazin-1-yl)-2-fluorophenyl]-1-cyclohexene-1,2-dicarboximide]",Herbicide rating (0-9) ECHCG,[1]; 0.125 kg/ha,0.0
same,Herbicide rating (0-9) ECHCG,[1]; 0.250 kg/ha,0.0
same,Herbicide rating (0-9) ECHCG,[1]; 0.500 kg/ha,0.0
same,Herbicide rating (0-9) SETVI,[2]; 0.125 kg/ha,0.0
same,Herbicide rating (0-9) SETVI,[2]; 0.250 kg/ha,0.0
same,Herbicide rating (0-9) SETVI,[2]; 0.500 kg/ha,0.0
same,Herbicide rating (0-9) GLXMAW,[3]; 0.125 kg/ha,1.0
same,Herbicide rating (0-9) GLXMAW,[3]; 0.250 kg/ha,1.0
same,Herbicide rating (0-9) GLXMAW,[3]; 0.500 kg/ha,1.0
same,Herbicide rating (0-9) ORYSAT,[4]; 0.125 kg/ha,2.0
same,Herbicide rating (0-9) ORYSAT,[4]; 0.250 kg/ha,2.0
same,Herbicide rating (0-9) ORYSAT,[4]; 0.500 kg/ha,2.0
same,Herbicide rating (0-9) TRZAWO,[5]; 0.125 kg/ha,2.0
same,Herbicide rating (0-9) TRZAWO,[5]; 0.250 kg/ha,2.0
same,Herbicide rating (0-9) TRZAWO,[5]; 0.500 kg/ha,2.0
